Data from ChEMBL document CHEMBL5653615 (J Biol Chem, 2013).

Tests used:
[1] = molecular target: Tyrosine-protein kinase Lyn (Homo sapiens) (UniProt P07948); test: Inhibition of human LYN at 18.6 nM by HotSpot assay relative to control
[2] = molecular target: Serine/threonine-protein kinase SIK2 (Homo sapiens) (UniProt Q9H0K1); test: Inhibition of human SIK2 at 18.6 nM by HotSpot assay relative to control
[3] = molecular target: T1, Serine/threonine-protein kinase Nek1 (Homo sapiens) (UniProt Q96PY6); test: Inhibition of human NEK1 at 18.6 nM by HotSpot assay relative to control
T1 sequence (whole entry): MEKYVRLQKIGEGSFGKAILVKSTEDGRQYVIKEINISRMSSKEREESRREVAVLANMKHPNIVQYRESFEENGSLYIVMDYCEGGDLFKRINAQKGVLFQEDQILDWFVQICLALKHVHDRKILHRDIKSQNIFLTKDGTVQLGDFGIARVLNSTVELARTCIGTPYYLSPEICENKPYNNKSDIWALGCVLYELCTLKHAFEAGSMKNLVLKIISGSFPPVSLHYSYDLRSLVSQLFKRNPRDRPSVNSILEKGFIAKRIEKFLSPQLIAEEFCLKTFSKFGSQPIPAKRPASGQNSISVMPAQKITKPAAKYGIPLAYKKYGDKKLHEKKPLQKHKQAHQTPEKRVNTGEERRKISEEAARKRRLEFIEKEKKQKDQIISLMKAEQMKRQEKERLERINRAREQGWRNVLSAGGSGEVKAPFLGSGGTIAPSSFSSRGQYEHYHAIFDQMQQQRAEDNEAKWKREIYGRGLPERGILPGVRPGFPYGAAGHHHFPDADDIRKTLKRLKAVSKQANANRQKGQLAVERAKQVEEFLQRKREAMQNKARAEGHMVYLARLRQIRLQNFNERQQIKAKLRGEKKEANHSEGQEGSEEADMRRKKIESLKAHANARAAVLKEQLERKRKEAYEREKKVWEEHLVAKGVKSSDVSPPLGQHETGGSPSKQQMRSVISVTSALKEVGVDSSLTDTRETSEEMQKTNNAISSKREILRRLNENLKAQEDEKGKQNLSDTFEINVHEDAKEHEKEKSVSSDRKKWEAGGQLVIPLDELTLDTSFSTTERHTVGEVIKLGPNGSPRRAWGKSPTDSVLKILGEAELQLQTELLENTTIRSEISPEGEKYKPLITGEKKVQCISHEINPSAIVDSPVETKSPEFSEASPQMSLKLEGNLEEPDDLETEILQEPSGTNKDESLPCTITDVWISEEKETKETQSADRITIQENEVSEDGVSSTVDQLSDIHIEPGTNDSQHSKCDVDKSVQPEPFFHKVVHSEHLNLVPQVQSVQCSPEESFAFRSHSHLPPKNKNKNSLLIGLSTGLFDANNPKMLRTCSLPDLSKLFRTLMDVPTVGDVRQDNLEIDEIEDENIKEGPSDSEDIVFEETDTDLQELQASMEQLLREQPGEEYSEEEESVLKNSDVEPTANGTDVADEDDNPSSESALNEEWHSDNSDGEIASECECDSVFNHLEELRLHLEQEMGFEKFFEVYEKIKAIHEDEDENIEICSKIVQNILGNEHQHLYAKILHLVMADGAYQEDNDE

[4] = molecular target: CDK1/Cyclin A (Homo sapiens) (UniProt P06493+P20248); test: Inhibition of human CDK1/cyclin A at 18.6 nM by HotSpot assay relative to control; assay type: protein-complex assay
CDK1/Cyclin A (Homo sapiens), sequence (P06493 whole entry, looked up): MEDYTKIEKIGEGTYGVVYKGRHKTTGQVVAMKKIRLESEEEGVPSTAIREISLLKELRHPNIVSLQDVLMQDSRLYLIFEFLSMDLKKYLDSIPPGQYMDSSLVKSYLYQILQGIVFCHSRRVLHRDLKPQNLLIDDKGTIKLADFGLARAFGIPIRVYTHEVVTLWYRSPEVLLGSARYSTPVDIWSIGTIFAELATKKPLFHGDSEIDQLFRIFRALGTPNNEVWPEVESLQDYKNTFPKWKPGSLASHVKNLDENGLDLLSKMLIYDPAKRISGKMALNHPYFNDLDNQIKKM
CDK1/Cyclin A (Homo sapiens), sequence (P20248 whole entry, looked up): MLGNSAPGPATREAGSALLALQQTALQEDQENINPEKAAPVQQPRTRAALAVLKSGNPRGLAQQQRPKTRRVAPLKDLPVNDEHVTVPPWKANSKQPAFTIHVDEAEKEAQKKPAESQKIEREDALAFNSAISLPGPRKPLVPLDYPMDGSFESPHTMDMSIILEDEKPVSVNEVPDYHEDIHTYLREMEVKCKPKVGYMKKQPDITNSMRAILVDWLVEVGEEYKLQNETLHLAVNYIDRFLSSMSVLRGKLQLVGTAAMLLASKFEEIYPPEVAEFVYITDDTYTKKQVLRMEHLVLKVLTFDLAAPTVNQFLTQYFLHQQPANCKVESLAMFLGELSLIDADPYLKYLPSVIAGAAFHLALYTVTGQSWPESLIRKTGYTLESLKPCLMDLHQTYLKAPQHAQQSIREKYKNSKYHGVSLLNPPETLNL

[5] = molecular target: Death-associated protein kinase 2 (Homo sapiens) (UniProt Q9UIK4); test: Inhibition of human DAPK2 at 18.6 nM by HotSpot assay relative to control
Death-associated protein kinase 2 (Homo sapiens), sequence (Q9UIK4 whole entry, looked up): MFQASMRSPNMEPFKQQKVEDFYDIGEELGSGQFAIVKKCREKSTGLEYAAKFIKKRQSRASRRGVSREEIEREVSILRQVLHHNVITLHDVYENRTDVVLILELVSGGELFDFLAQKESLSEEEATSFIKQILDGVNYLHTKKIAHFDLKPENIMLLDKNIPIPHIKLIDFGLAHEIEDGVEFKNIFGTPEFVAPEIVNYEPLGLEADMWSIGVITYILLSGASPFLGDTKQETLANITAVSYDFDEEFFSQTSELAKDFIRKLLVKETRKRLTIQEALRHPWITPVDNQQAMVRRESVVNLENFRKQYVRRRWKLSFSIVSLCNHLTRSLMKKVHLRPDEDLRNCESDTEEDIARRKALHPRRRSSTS

[6] = molecular target: Calcium/calmodulin-dependent protein kinase type II subunit alpha (Homo sapiens) (UniProt Q9UQM7); test: Inhibition of human CAMK2a at 18.6 nM by HotSpot assay relative to control
Calcium/calmodulin-dependent protein kinase type II subunit alpha (Homo sapiens), sequence (Q9UQM7 whole entry): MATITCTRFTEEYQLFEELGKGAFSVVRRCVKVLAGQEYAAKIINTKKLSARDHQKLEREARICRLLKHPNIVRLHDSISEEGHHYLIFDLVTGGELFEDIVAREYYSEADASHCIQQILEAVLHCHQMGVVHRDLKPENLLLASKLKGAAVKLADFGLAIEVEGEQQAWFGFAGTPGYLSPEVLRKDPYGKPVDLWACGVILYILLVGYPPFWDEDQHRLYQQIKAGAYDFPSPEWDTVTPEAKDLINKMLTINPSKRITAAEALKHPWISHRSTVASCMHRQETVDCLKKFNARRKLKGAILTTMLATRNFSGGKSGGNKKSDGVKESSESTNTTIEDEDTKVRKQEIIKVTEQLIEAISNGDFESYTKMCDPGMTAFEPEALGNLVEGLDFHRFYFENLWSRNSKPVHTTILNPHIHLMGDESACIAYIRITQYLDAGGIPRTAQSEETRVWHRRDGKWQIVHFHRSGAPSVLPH

[7] = molecular target: Ribosomal protein S6 kinase beta-1 (Homo sapiens) (UniProt P23443); test: Inhibition of human RPS6KB1 at 18.6 nM by HotSpot assay relative to control
Ribosomal protein S6 kinase beta-1 (Homo sapiens), sequence (P23443 whole entry, looked up): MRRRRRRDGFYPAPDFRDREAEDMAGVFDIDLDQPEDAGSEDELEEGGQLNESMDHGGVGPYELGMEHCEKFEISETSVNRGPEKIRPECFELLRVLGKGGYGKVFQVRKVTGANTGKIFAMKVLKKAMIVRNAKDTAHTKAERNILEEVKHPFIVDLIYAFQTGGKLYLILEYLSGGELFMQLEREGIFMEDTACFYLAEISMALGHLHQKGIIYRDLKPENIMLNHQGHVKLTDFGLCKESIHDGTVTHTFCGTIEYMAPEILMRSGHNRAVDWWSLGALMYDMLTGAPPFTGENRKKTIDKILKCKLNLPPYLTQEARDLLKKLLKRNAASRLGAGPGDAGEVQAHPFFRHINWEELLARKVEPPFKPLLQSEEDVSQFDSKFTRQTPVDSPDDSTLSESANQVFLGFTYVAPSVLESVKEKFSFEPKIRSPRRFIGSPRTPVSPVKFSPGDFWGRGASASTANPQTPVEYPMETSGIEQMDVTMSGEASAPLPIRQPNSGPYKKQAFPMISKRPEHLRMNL

[8] = molecular target: G protein-coupled receptor kinase 4 (Homo sapiens) (UniProt P32298); test: Inhibition of human GRK4 at 18.6 nM by HotSpot assay relative to control
G protein-coupled receptor kinase 4 (Homo sapiens), sequence (P32298 whole entry, looked up): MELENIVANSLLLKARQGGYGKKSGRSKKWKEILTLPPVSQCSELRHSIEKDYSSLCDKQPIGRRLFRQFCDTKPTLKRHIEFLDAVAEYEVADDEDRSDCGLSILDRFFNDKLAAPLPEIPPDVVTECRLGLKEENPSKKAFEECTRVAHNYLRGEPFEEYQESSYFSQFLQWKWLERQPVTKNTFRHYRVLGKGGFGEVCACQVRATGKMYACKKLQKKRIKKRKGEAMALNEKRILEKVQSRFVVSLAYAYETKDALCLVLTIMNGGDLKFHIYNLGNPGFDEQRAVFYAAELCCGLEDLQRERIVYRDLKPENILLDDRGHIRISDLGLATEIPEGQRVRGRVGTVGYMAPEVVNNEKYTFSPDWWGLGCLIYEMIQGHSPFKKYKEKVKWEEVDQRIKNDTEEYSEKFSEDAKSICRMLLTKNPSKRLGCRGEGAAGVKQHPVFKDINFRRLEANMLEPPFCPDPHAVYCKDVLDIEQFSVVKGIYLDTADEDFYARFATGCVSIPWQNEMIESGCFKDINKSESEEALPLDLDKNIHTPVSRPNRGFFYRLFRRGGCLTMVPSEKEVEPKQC

[9] = molecular target: Glycogen synthase kinase-3 beta (Homo sapiens) (UniProt P49841); test: Inhibition of human GSK3b at 1.82 nM by HotSpot assay relative to control
Glycogen synthase kinase-3 beta (Homo sapiens), sequence (P49841 whole entry, looked up): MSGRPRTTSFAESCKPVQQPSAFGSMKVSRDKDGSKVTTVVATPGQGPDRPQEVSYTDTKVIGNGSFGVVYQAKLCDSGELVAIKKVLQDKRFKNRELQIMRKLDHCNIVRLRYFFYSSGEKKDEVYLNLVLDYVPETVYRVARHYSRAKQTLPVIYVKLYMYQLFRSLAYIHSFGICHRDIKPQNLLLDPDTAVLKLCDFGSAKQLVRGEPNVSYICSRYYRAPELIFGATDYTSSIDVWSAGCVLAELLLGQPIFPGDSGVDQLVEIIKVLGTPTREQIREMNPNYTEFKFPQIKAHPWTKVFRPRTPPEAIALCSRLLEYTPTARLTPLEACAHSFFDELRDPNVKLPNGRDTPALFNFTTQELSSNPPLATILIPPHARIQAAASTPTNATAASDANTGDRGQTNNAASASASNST

[10] = molecular target: T2, Serine/threonine-protein kinase haspin (Homo sapiens) (UniProt Q8TF76); test: Inhibition of human Haspin at 1.82 nM by HotSpot assay relative to control
T2 sequence (whole entry): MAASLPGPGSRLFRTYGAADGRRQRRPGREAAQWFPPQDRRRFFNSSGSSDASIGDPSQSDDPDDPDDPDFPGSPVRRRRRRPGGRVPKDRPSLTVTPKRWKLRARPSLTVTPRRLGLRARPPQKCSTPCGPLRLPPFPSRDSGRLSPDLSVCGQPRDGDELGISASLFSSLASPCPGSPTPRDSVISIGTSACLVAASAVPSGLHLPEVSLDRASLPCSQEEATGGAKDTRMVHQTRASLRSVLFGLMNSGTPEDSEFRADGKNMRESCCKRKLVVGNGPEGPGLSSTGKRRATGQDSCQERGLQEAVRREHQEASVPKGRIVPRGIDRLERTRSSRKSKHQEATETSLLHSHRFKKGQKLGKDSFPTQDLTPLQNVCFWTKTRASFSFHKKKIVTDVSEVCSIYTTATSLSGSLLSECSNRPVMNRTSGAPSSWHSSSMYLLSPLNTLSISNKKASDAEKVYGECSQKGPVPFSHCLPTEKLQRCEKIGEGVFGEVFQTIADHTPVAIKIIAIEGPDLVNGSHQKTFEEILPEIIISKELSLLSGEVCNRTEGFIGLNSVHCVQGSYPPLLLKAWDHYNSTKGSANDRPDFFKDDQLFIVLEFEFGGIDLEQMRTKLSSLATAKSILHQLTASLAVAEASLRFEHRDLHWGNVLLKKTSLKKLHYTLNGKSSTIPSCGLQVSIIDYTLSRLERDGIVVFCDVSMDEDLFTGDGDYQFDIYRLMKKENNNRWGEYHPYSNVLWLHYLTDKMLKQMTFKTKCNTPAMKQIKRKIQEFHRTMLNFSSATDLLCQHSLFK

Tyrosine-protein kinase Lyn (Homo sapiens), sequence (P07948 2-512 limits assumed): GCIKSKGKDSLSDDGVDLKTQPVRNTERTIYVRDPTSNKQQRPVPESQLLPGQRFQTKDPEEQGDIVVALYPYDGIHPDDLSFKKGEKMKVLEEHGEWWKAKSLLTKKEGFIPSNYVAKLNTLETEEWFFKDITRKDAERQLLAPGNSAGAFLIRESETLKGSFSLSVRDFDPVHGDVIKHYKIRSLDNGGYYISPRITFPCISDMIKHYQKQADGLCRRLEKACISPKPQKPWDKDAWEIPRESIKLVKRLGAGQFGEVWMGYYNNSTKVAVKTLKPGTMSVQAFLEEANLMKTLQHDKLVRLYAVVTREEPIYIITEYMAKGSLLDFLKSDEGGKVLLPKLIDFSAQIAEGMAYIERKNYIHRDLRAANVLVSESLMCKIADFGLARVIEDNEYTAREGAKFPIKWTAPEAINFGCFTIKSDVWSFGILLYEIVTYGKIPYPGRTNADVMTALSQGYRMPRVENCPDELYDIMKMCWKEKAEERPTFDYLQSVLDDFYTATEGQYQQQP
Serine/threonine-protein kinase SIK2 (Homo sapiens), sequence (Q9H0K1 whole entry, looked up): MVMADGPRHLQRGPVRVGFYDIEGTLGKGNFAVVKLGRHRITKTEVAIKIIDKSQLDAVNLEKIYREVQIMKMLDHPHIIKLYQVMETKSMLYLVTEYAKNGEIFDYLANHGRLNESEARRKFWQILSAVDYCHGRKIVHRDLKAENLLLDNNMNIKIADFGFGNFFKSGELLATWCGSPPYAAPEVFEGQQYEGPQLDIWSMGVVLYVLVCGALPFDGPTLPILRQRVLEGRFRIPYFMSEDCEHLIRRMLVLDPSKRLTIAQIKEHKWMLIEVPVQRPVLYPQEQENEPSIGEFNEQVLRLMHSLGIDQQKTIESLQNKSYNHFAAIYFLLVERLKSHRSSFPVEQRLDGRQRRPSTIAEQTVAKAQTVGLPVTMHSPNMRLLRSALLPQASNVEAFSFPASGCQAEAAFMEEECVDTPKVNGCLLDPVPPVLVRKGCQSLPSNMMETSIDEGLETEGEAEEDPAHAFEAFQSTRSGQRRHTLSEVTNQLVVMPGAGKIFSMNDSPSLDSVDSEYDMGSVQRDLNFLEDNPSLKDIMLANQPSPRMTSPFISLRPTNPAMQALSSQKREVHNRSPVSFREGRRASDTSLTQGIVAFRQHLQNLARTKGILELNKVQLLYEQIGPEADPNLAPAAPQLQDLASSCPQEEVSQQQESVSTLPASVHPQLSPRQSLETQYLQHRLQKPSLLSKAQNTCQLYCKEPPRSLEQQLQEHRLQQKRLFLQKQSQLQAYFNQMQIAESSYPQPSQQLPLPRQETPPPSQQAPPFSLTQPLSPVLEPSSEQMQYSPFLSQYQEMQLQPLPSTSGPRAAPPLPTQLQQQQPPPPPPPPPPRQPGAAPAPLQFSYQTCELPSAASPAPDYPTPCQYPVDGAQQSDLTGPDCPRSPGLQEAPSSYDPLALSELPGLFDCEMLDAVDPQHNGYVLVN

Row | SMILES | inhibition [1] [%] | inhibition [2] [%] | inhibition [3] [%] | inhibition [4] [%] | inhibition [5] [%] | inhibition [6] [%] | inhibition [7] [%] | inhibition [8] [%] | inhibition [9] [%] | inhibition [10] [%]
1 | C[C@]1(O)C[C@@H](c2nc(-c3ccc4ccc(-c5ccccc5)nc4c3)c3c(N)nccn32)C1 | -0.99 | -8.94 | 5.45 | 1.16 | 0.74 | -4.3 | -4.9 | 5.49 | – | –
2 | C[C@@]1(C(=O)Nc2ccc(F)nc2)CCCN1c1nc(Nc2cc(C3CC3)n[nH]2)c2cccn2n1 | – | – | – | – | – | – | – | – | 34.6 | -1.25
